# ChEMBL document CHEMBL3137667, “[Drug-induced liver injury; fourteenth updated edition of the bibliographic database of liver injuries and related drugs]” (Gastroenterol Clin Biol, 2004)
# How the values were obtained:
# [1] = human
# [2] = human, serum, 4383 h
# [3] = human; remark: listed apart in the source
# [4] = human; remark: listed apart in the source
# [5] = Highest frequency of moderate liver toxicity observed during clinical trials, expressed as a percentage. [column '% BIOL' in source]; details: human
# [6] = Highest frequency of acute liver toxicity observed during clinical trials, expressed as a percentage. [column '% AIGUE' in source]; details: human
# [7] = human; remark: listed apart in the source
# [8] = human; remark: listed apart in the source
# [9] = human; remark: listed apart in the source
# [10] = human; remark: listed apart in the source
# [11] = human, serum
# [12] = human; remark: listed apart in the source
# [13] = human, serum; remark: listed apart in the source
# [14] = human; remark: listed apart in the source
# 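For Hepatotoxicity (association with vascular disease) in this document: count of indexed literature references reporting vascular liver injury in humans, e.g. peliosis hepatitis, hepatic veno-occlusive disease or Budd-Chiari syndrome.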
# 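For Hepatotoxicity (benign tumour) in this document: value is a count of indexed literature references citing a benign tumour confirmed by histopathology.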
# 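For Hepatotoxicity (choleostasis) in this document: human cholestatic liver injury, shown by histopathology or by peak ALT or AST elevation over alkaline phosphatase ratio below 2, value counts indexed literature reports.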
# 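For Hepatotoxicity (chronic liver disease) in this document: chronic liver injury confirmed by histopathology or persistently raised serum aminotransferase activity beyond 6 months, value given as the count of indexed literature references.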
# 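For Hepatotoxicity (cirrhosis) in this document: value is a count of indexed literature references reporting cirrhosis confirmed by histopathology.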
# 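For Hepatotoxicity (cytolytic) in this document: human cytolytic liver injury, shown by histopathology or by a ratio above 5 of peak ALT or AST elevation to alkaline phosphatase elevation, value counts indexed references.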
# 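For Hepatotoxicity (granulomatous hepatitis) in this document: value is a count of indexed literature references reporting granulomatous liver disease confirmed by histopathology.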
# 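For Hepatotoxicity (malignant tumour) in this document: malignant tumour confirmed by histopathology, value gives the count of indexed literature references reporting it.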
# 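For Hepatotoxicity (severe hepatitis) in this document: human clinical data: severe hepatitis, meaning potentially life-threatening liver failure or clinically observed cases, the value counts how many indexed literature references report it.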
# 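For Hepatotoxicity (steatosis) in this document: steatosis confirmed by histopathology, value is the count of indexed references.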
compound,measurement,setting,value
COCc1c(C(=O)OC(C)C)ncc2[nH]c3ccc(OCc4ccccc4)cc3c12 [ABECARNIL],Hepatotoxicity (choleostasis),[1],0
same,Hepatotoxicity (chronic liver disease),[2],0
same,Hepatotoxicity (benign tumour),[3],0
same,Hepatotoxicity (granulomatous hepatitis),[4],0
same,Hepatotoxicity (moderate),[5],8%
same,Hepatotoxicity (acute),[6],0%
same,Hepatotoxicity (association with vascular disease),[7],0
same,Hepatotoxicity (steatosis),[8],0
same,Hepatotoxicity (cirrhosis),[9],0
same,Hepatotoxicity (severe hepatitis),[10],0
same,Hepatotoxicity (moderate),[11],1
same,Hepatotoxicity (malignant tumour),[12],0
same,Hepatotoxicity (acute),[13],0
same,Hepatotoxicity (cytolytic),[14],0
COC(=O)C1=C(C)NC(C)=C(C(=O)OC(C)C)C1c1cccc2nonc12 (stereo unspecified) [ISRADIPINE],Hepatotoxicity (choleostasis),[1],0
same,Hepatotoxicity (chronic liver disease),[2],0
same,Hepatotoxicity (benign tumour),[3],0
same,Hepatotoxicity (granulomatous hepatitis),[4],0
same,Hepatotoxicity (moderate),[5],8.3%
same,Hepatotoxicity (acute),[6],0%
same,Hepatotoxicity (association with vascular disease),[7],0
same,Hepatotoxicity (steatosis),[8],0
same,Hepatotoxicity (cirrhosis),[9],0
same,Hepatotoxicity (severe hepatitis),[10],0
same,Hepatotoxicity (moderate),[11],6
same,Hepatotoxicity (malignant tumour),[12],0
same,Hepatotoxicity (acute),[13],0
same,Hepatotoxicity (cytolytic),[14],0
COc1cc(NCc2ccc3nc(N)nc(N)c3c2C)cc(OC)c1OC [TRIMETREXATE],Hepatotoxicity (choleostasis),[1],0
same,Hepatotoxicity (chronic liver disease),[2],0
same,Hepatotoxicity (benign tumour),[3],0
same,Hepatotoxicity (granulomatous hepatitis),[4],0
same,Hepatotoxicity (moderate),[5],25%
same,Hepatotoxicity (acute),[6],8%
same,Hepatotoxicity (association with vascular disease),[7],0
same,Hepatotoxicity (steatosis),[8],0
same,Hepatotoxicity (cirrhosis),[9],0
same,Hepatotoxicity (severe hepatitis),[10],0
same,Hepatotoxicity (moderate),[11],10
same,Hepatotoxicity (malignant tumour),[12],0
same,Hepatotoxicity (acute),[13],1
same,Hepatotoxicity (cytolytic),[14],0
NCCNC(=O)c1ccc(Cl)cn1 [LAZABEMIDE],Hepatotoxicity (choleostasis),[1],0
same,Hepatotoxicity (chronic liver disease),[2],0
same,Hepatotoxicity (benign tumour),[3],0
same,Hepatotoxicity (granulomatous hepatitis),[4],0
same,Hepatotoxicity (moderate),[5],0.3%
same,Hepatotoxicity (acute),[6],0%
same,Hepatotoxicity (association with vascular disease),[7],0
same,Hepatotoxicity (steatosis),[8],0
same,Hepatotoxicity (cirrhosis),[9],0
same,Hepatotoxicity (severe hepatitis),[10],0
same,Hepatotoxicity (moderate),[11],1
same,Hepatotoxicity (malignant tumour),[12],0
same,Hepatotoxicity (acute),[13],0
same,Hepatotoxicity (cytolytic),[14],0
CCOP(=O)(OCC)C(C)NC(=O)N(CCCl)N=O (stereo unspecified) [FOTEMUSTINE],Hepatotoxicity (choleostasis),[1],0
same,Hepatotoxicity (chronic liver disease),[2],0
same,Hepatotoxicity (benign tumour),[3],0
same,Hepatotoxicity (granulomatous hepatitis),[4],0
same,Hepatotoxicity (moderate),[5],30.8%
same,Hepatotoxicity (acute),[6],0%
same,Hepatotoxicity (association with vascular disease),[7],0
same,Hepatotoxicity (steatosis),[8],0
same,Hepatotoxicity (cirrhosis),[9],0
same,Hepatotoxicity (severe hepatitis),[10],0
same,Hepatotoxicity (moderate),[11],9
same,Hepatotoxicity (malignant tumour),[12],0
same,Hepatotoxicity (acute),[13],1
same,Hepatotoxicity (cytolytic),[14],0
CC(/C=C1\SC(=S)N(CC(=O)O)C1=O)=C\c1ccccc1,Hepatotoxicity (choleostasis),[1],0
same,Hepatotoxicity (chronic liver disease),[2],0
same,Hepatotoxicity (benign tumour),[3],0
same,Hepatotoxicity (granulomatous hepatitis),[4],0
same,Hepatotoxicity (moderate),[5],1%
same,Hepatotoxicity (acute),[6],0%
same,Hepatotoxicity (association with vascular disease),[7],0
same,Hepatotoxicity (steatosis),[8],0
same,Hepatotoxicity (cirrhosis),[9],0
same,Hepatotoxicity (severe hepatitis),[10],1
same,Hepatotoxicity (moderate),[11],2
same,Hepatotoxicity (malignant tumour),[12],0
same,Hepatotoxicity (acute),[13],1
same,Hepatotoxicity (cytolytic),[14],1
CC(C)(C)NCC(O)c1ccc(O)c(CO)c1 (stereo unspecified) [ALBUTEROL],Hepatotoxicity (choleostasis),[1]; Liver,0
same,Hepatotoxicity (chronic liver disease),[2],0
same,Hepatotoxicity (benign tumour),[3],0
same,Hepatotoxicity (granulomatous hepatitis),[4]; Liver,0
same,Hepatotoxicity (moderate),[5]; Liver,0%
same,Hepatotoxicity (acute),[6]; Liver,4%
same,Hepatotoxicity (association with vascular disease),[7],0
same,Hepatotoxicity (steatosis),[8],0
same,Hepatotoxicity (cirrhosis),[9],0
same,Hepatotoxicity (severe hepatitis),[10]; Liver,0
same,Hepatotoxicity (moderate),[11],0
same,Hepatotoxicity (malignant tumour),[12],0
same,Hepatotoxicity (cytolytic),[14]; Liver,0
CCn1nc(C(=O)O)c(=O)c2cc3c(cc21)OCO3 [CINOXACIN],Hepatotoxicity (choleostasis),[1],0
same,Hepatotoxicity (chronic liver disease),[2],0
same,Hepatotoxicity (benign tumour),[3],0
same,Hepatotoxicity (granulomatous hepatitis),[4],0
same,Hepatotoxicity (moderate),[5],1%
same,Hepatotoxicity (acute),[6],0%
same,Hepatotoxicity (association with vascular disease),[7],0
same,Hepatotoxicity (steatosis),[8],0
same,Hepatotoxicity (cirrhosis),[9],0
same,Hepatotoxicity (severe hepatitis),[10],0
same,Hepatotoxicity (moderate),[11],3
same,Hepatotoxicity (malignant tumour),[12],0
same,Hepatotoxicity (cytolytic),[14],0
CO[C@@]1(NC(=O)CSC(F)F)C(=O)N2C(C(=O)O)=C(CSc3nnnn3CCO)CO[C@@H]21 [FLOMOXEF],Hepatotoxicity (choleostasis),[1],0
same,Hepatotoxicity (chronic liver disease),[2],0
same,Hepatotoxicity (benign tumour),[3],0
same,Hepatotoxicity (granulomatous hepatitis),[4],0
same,Hepatotoxicity (moderate),[5],33.3%
same,Hepatotoxicity (acute),[6],0%
same,Hepatotoxicity (association with vascular disease),[7],0
same,Hepatotoxicity (steatosis),[8],0
same,Hepatotoxicity (cirrhosis),[9],0
same,Hepatotoxicity (severe hepatitis),[10],0
same,Hepatotoxicity (moderate),[11],55
same,Hepatotoxicity (malignant tumour),[12],0
same,Hepatotoxicity (cytolytic),[14],0
NC(=O)c1csc([C@@H]2O[C@H](CO)[C@@H](O)[C@H]2O)n1 [TIAZOFURIN],Hepatotoxicity (choleostasis),[1],0
same,Hepatotoxicity (chronic liver disease),[2],0
same,Hepatotoxicity (benign tumour),[3],0
same,Hepatotoxicity (granulomatous hepatitis),[4],0
same,Hepatotoxicity (moderate),[5],62.5%
same,Hepatotoxicity (acute),[6],0%
same,Hepatotoxicity (association with vascular disease),[7],0
same,Hepatotoxicity (steatosis),[8],0
same,Hepatotoxicity (cirrhosis),[9],0
same,Hepatotoxicity (severe hepatitis),[10],0
same,Hepatotoxicity (moderate),[11],7
same,Hepatotoxicity (malignant tumour),[12],0
same,Hepatotoxicity (cytolytic),[14],0
CCn1cc(C(=O)O)c(=O)c2cc(F)c(N3CCN(C)CC3)cc21 [PEFLOXACIN],Hepatotoxicity (choleostasis),[1],0
same,Hepatotoxicity (chronic liver disease),[2],0
same,Hepatotoxicity (benign tumour),[3],0
same,Hepatotoxicity (granulomatous hepatitis),[4],0
same,Hepatotoxicity (moderate),[5]; Liver,16.7%
same,Hepatotoxicity (acute),[6]; Liver,0%
same,Hepatotoxicity (steatosis),[8],0
same,Hepatotoxicity (cirrhosis),[9],0
same,Hepatotoxicity (severe hepatitis),[10]; Liver,0
same,Hepatotoxicity (moderate),[11],5
same,Hepatotoxicity (malignant tumour),[12],0
same,Hepatotoxicity (acute),[13],0
same,Hepatotoxicity (cytolytic),[14],0
CARBETIMER,Hepatotoxicity (choleostasis),[1],0
same,Hepatotoxicity (chronic liver disease),[2],0
same,Hepatotoxicity (benign tumour),[3],0
same,Hepatotoxicity (granulomatous hepatitis),[4],0
same,Hepatotoxicity (acute),[6],0%
same,Hepatotoxicity (association with vascular disease),[7],0
same,Hepatotoxicity (steatosis),[8],0
same,Hepatotoxicity (cirrhosis),[9],0
same,Hepatotoxicity (severe hepatitis),[10],0
same,Hepatotoxicity (moderate),[11],2
same,Hepatotoxicity (malignant tumour),[12],0
same,Hepatotoxicity (acute),[13],0
same,Hepatotoxicity (cytolytic),[14],0
CC(C)NCC(O)COc1cccc2[nH]ccc12 (stereo unspecified) [PINDOLOL],Hepatotoxicity (choleostasis),[1],0
same,Hepatotoxicity (chronic liver disease),[2],0
same,Hepatotoxicity (benign tumour),[3],0
same,Hepatotoxicity (granulomatous hepatitis),[4],0
same,Hepatotoxicity (moderate),[5],7%
same,Hepatotoxicity (acute),[6],0%
same,Hepatotoxicity (association with vascular disease),[7],0
same,Hepatotoxicity (steatosis),[8],0
same,Hepatotoxicity (cirrhosis),[9],0
same,Hepatotoxicity (severe hepatitis),[10],0
same,Hepatotoxicity (moderate),[11],1
same,Hepatotoxicity (malignant tumour),[12],0
same,Hepatotoxicity (cytolytic),[14],0
COc1cccc2c1C(=O)c1c(O)c3c(c(O)c1C2=O)C[C@@](O)(C(=O)CO)C[C@@H]3O[C@H]1C[C@H](N)[C@@H](O)[C@H](C)O1 [EPIRUBICIN],Hepatotoxicity (choleostasis),[1],0
same,Hepatotoxicity (chronic liver disease),[2],0
same,Hepatotoxicity (benign tumour),[3],0
same,Hepatotoxicity (granulomatous hepatitis),[4],0
same,Hepatotoxicity (moderate),[5],6.4%
same,Hepatotoxicity (association with vascular disease),[7],0
same,Hepatotoxicity (steatosis),[8],0
same,Hepatotoxicity (cirrhosis),[9],0
same,Hepatotoxicity (severe hepatitis),[10],0
same,Hepatotoxicity (moderate),[11],3
same,Hepatotoxicity (malignant tumour),[12],0
same,Hepatotoxicity (acute),[13],0
same,Hepatotoxicity (cytolytic),[14],0
CC1CS(=O)(=O)CCN1/N=C/c1ccc([N+](=O)[O-])o1 (stereo unspecified) [NIFURTIMOX],Hepatotoxicity (choleostasis),[1]; Liver,0
same,Hepatotoxicity (chronic liver disease),[2],0
same,Hepatotoxicity (benign tumour),[3],0
same,Hepatotoxicity (granulomatous hepatitis),[4]; Liver,0
same,Hepatotoxicity (moderate),[5]; Liver,0%
same,Hepatotoxicity (association with vascular disease),[7],0
same,Hepatotoxicity (steatosis),[8],0
same,Hepatotoxicity (cirrhosis),[9],0
same,Hepatotoxicity (severe hepatitis),[10]; Liver,0
same,Hepatotoxicity (moderate),[11],0
same,Hepatotoxicity (malignant tumour),[12],0
same,Hepatotoxicity (cytolytic),[14]; Liver,0
C[C@]12C=CC(=O)C=C1CC[C@@H]1[C@@H]2CC[C@@]2(C)[C@H]1CC[C@]2(C)O (stereo in doubt; form 2) [METHANDROSTENOLONE],Hepatotoxicity (choleostasis),[1],1
same,Hepatotoxicity (benign tumour),[3],0
same,Hepatotoxicity (malignant tumour),[12],1
same,Hepatotoxicity (acute),[13],1
Oc1c(Cl)c(Cl)c(Cl)c(Cl)c1Cl [PENTACHLOROPHENOL],Hepatotoxicity (choleostasis),[1],0
same,Hepatotoxicity (chronic liver disease),[2],1
same,Hepatotoxicity (benign tumour),[3],0
same,Hepatotoxicity (granulomatous hepatitis),[4],0
same,Hepatotoxicity (moderate),[5],0%
same,Hepatotoxicity (association with vascular disease),[7],0
same,Hepatotoxicity (steatosis),[8],1
same,Hepatotoxicity (cirrhosis),[9],0
same,Hepatotoxicity (severe hepatitis),[10],0
same,Hepatotoxicity (moderate),[11],0
same,Hepatotoxicity (malignant tumour),[12],0
same,Hepatotoxicity (cytolytic),[14],0
